Results published in US11384381B2, “Reaction accelerating agent” (Kikkoman Corporation, priority 2016, dated 2022).

Key:
[1] = test system: fructosyl peptide oxidase (FPOX-CET); experiment: Fructosyl valyl histidine detection reaction completed with excess fructosyl peptide oxidase (Example 6); assay type: biochemical; details: 0.04% (w/v) compound, 4.8 U/ml FPOX-CET (excess), 32 μM fructosyl valyl histidine, pH 7.0, 37° C.; for ΔA9 min: change in A694-A751 9 minutes after mixing; for ΔA10 min: change in A694-A751 10 minutes after mixing, defined as ΔA100%
Experimental: In this Example the amount of change in absorbance is determined when the detection reaction of the substrate fructosyl valyl histidine was completed using an excess amount of fructosyl peptide oxidase (FPOX-CET), which is an oxidase.
A reagent for fructosyl valyl histidine measurement having the following composition was prepared, and the measurement of fructosyl valyl histidine using fructosyl peptide oxidase was carried out using Bio Majesty JCA-BM1650 (manufactured by JEOL Ltd.).
32 μM fructosyl valyl histidine (manufactured by Kikkoman Biochemifa Company)
30 mM MOPS-NaOH buffer solution, pH 7.0
0.2% (v/v) Triton X-100 (manufactured by Wako Pure Chemical Industries, Ltd.)
(§1) 10 U/ml peroxidase PEO-301 (Toyobo Co., Ltd.)
0.023 mM 10-(carboxymethylaminocarbonyl)-3,7-bis(dimethylamino)phenothiazine sodium (DA-67, manufactured by Wako Pure Chemical Industries, Ltd.)
(§2) 0.04% (w/v) of the compound of Comparative Example 2, any one compound of the present invention, or compound-free (Comparative Example 1) ion-exchange water as shown in Table 1
10 mM MOPS-NaOH buffer solution, pH 7.0
4.8 U/ml FPOX-CET (manufactured by Kikkoman Biochemifa Company)
8 μl of the sample was added to 96 μl of the first reagent-B, and the mixture was incubated at 37° C. for 5 minutes. Then, 24 μl of the second reagent-C was added thereto, and the quantitative reaction of hydrogen peroxide resulting from the oxidation of fructosyl valyl histidine was allowed to progress at 37° C. for 5 minutes. The absorbance (A694 and A751) of the reaction solution for light at wavelengths of 694 nm and 751 nm was measured over time for 10 minutes after the mixing of the sample with the first reagent-B to determine the value of subtraction of A751 from A694, i.e., the value A694/751. Subsequently, ΔA was calculated by subtracting, from […], the value of (104/128) times A694/751 4.8 minutes after the mixing of the sample with the first reagent-B. Incidentally, 4.8 minutes after the mixing of the sample with the first reagent-B represents the time immediately before the addition of the second reagent-C. ΔA 9 minutes and 10 minutes after the mixing of the diluted sample with the first reagent-B (ΔA9min and ΔA10min) are shown in Table 3.
(§3) In other words, it can be recognized that the quantitative reaction of fructosyl valyl histidine, i.e., the quantitative reaction of hydrogen peroxide resulting from the oxidation of fructosyl valyl histidine, was completed in 10 minutes after the mixing of the diluted sample with the first reagent-B. Accordingly, in Examples 6 and 7, ΔA10min in each Comparative Example or the present invention was defined as ΔA when 100% of the quantitative reaction of […] progressed under each condition (ΔA100%).

[2] = test system: fructosyl amino acid oxidase (FAOD-E); experiment: Fructosyl valine detection reaction completed with excess fructosyl amino acid oxidase (Example 8); assay type: biochemical; details: 0.04% (w/v) compound, 21.4 U/ml FAOD-E (excess), 32 μM fructosyl valine, pH 8.0, 37° C.; for ΔA9 min: change in A694-A751 9 minutes after mixing; for ΔA10 min: change in A694-A751 10 minutes after mixing, defined as ΔA100%
Experimental: In this Example, the amount of change in absorbance is determined when the detection reaction of the substrate fructosyl valine was completed using an excess amount of fructosyl amino acid oxidase (FAOD-E), which is an oxidase.
A reagent for fructosyl valine measurement having the following composition was prepared, and the measurement of fructosyl valine using fructosyl amino acid oxidase was carried out using Bio Majesty JCA-BM 1650 (manufactured by JEOL Ltd.).
32 μM fructosyl valine (manufactured by Kikkoman Biochemifa Company)
30 mM MOPS-NaOH buffer solution, pH 8.0
0.2% (v/v) NYMEEN F-215 (manufactured by NOF Corp.)
as §1
0.023 mM 10-(carboxymethylaminocarbonyl)-3,7-bis(dimethylamino)phenothiazine sodium
(DA-67, manufactured by Wako Pure Chemical Industries, Ltd.)
as §2
10 mM MOPS-NaOH buffer solution, pH 8.0
21.4 U/ml FAOD-E (manufactured by Kikkoman Biochemifa Company)
8 μl of the sample was added to 96 μl of the first reagent-C, and the mixture was incubated at 37° C. for 5 minutes. Then, 24 μl of the second reagent-E was added thereto, and the quantitative reaction of hydrogen peroxide resulting from the oxidation of fructosyl valine was allowed to progress at 37° C. for 5 minutes. The absorbance ([…] and A751) of the reaction solution for light at wavelengths of 694 nm and 751 nm was measured over time for 10 minutes after the mixing of the sample with the first reagent-C to determine the value of subtraction of A751 from A694, i.e., the value A694/751. Subsequently, ΔA was calculated by subtracting, from A694/751, the value of (104/128) times A694/751 4.8 minutes after the mixing of the sample with the first reagent-C. Incidentally, 4.8 minutes after the mixing of the sample with the first reagent-C represents the time immediately before the addition of the second reagent-E. ΔA 9 minutes and 10 minutes after the mixing of the diluted sample with the first reagent-C (ΔA9min and ΔA10min) are shown in Table 5.
as §3, with “valine,” for “valyl histidine,”, “reagent-C.” for “reagent-B.”, “8” for “6”, “9,” for “7,”

| Compound | ΔA9 min [1] | ΔA10 min [1] | ΔA9 min [2] | ΔA10 min [2] |
| --- | --- | --- | --- | --- |
| Cc1nn(-c2cc(S(=O)(=O)[O-])ccc2Cl)c(O)c1N=Nc1ccccc1.[Na+] [Acid Yellow 34] | 0.032 | 0.033 | – | – |
| O=C([O-])c1cc(N=Nc2cccc([N+](=O)[O-])c2)ccc1O.[Na+] [Alizarin Yellow GG] | – | – | 0.044 | 0.046 |
| COc1cc(N=Nc2cccc(S(=O)(=O)[O-])c2)ccc1NC(=O)Nc1ccc(N=Nc2ccc(O)c(C(=O)[O-])c2)cc1.[Na+].[Na+] [Direct Yellow 44] | 0.043 | 0.043 | – | – |
| O=C(O)c1cc(N=Nc2ccc3cc(S(=O)(=O)O)ccc3c2)ccc1O.[Na] [Chrome Yellow] | 0.064 | 0.064 | 0.066 | 0.067 |
| COc1cc(N=Nc2ccc(N)cc2)c(C)cc1N [Disperse Diazo Black 3BF] | – | – | 0.062 | 0.061 |
| O=C([O-])c1cc(N=Nc2ccc([N+](=O)[O-])cc2)ccc1O.[Na+] [Mordant Orange 1] | – | – | 0.049 | 0.051 |
| Xylene Fast Yellow 2G | 0.027 | 0.027 | – | – |
